Assay results as given in article PMC7179167 (Molecules, 2020).
In brackets after ≈: the same amount, converted by molar mass. Where two headings read alike, the source gives them in different places.

Key:
[1] = tested on: HCT-116 (human colon cancer); test: MTT cytotoxicity assay, HCT-116; type: cell-based; conditions: for inhibition at 100 µg/mL / IC50: Homo sapiens; for inhibition at 100 µg/mL: HCT-116, 100 µg/ml, 48 h, read-out: Growth Inhibition (%) HCT-116; for IC50: HCT-116, 48 h
[2] = tested on: HepG-2 (human liver cancer); test: MTT cytotoxicity assay, HepG-2; type: cell-based; conditions: for inhibition at 100 µg/mL: HepG2, 100 µg/ml, 48 h, read-out: Growth Inhibition (%) HepG-2; for IC50: HepG2, 48 h post-treatment
Experimental: MCF-7 (human breast cancer), HCT-116 (human colon cancer) and HepG2 (human liver cancer) cell lines were obtained from Karolinska Institute, Stockholm, Sweden. All cells were maintained in RPMI 1640 medium. The media were supplemented with 10% heat-inactivated fetal bovine serum plus 1% antibiotic-antimycoticmixture (10,000 U/mL of potassium penicillin, 10,000 μg/mL of streptomycin sulfate, 25 μg/mL of amphotericin B and 1% of L glutamine (Biowest, USA)). BJ-1 of a human skin fibroblast derived from normal foreskin was obtained from ATCC® CRL-2522™ as a frozen ampoule with about 1 × 10^6 cells per 1 ml volume. BJ-1 was maintained in MEM with 2 mM of L-glutamine and Earle’s salts medium.
Cell viability was studied using the MTT 3-(4,5-dimethylthiazol-2-yl)-2,5-diphenyl-tetrazolium bromide (Bio Basic Canada Inc. Toronto, Canada) assay [33]. The steps were executed in a sterile laminar air flow cabinet biosafety class II level (Baker, SG403INT; Sanford, ME, USA). All incubations were carried out at 37 °C in a 5% CO2 incubator under a humidified atmosphere of 95% (Sheldon, TC2323; Cornelius, OR, USA). Cells were seeded into 96-well microtiter plastic plates at a concentration of (10^4 cells/well) and allowed to adhere for 24 h. The medium was aspirated and then added to the cells with the test compounds 11a–c, 12a–c, 13a–i, 14a–i and 15a,b at a single dose of 100 μg/mL in DMSO. After incubation of the medium for 48 h, 40 μL of MTT salt (2.5 μg/mL) was added to each well and then incubated for an additional 4 h. To stop the reaction and dissolve any formed formazan crystals, 200 μL of 10% sodium dodecyl sulfate (SDS) were added to each well and incubated overnight at 37 °C. The amount of formazan product was measured at 595 nm with a reference wavelength of 690 nm as a background using a microplate reader (Bio-Rad Laboratories, model 3350, California, USA). For the untreated cells (negative control), the medium was added instead of the tested compounds. […] Dimethylsulfoxide (DMSO) was the vehicle used for dissolution of the testing compound, and its final concentration on the cells was less than 0.2%. At the same dilution, the solvent concentration was the same for all drugs and between the control and drug treatments.

[3] = tested on: MCF-7 (human breast cancer); test: MTT cytotoxicity assay, MCF-7; type: cell-based; conditions: for inhibition at 100 µg/mL: MCF7, 100 µg/ml, 48 h, read-out: Growth Inhibition (%) MCF-7; for IC50: MCF7, 48 h post-treatment
[4] = tested on: normal skin fibroblast cells (BJ-1); test: MTT cytotoxicity assay, normal skin fibroblast BJ-1; type: cell-based; conditions: Homo sapiens, 48 h, read-out: Growth Inhibition (%) BJ-1
[5] = DPPH free radical scavenging assay; type: biochemical; conditions: concentration of 20µg/l, mean ± SD of three experiments
Experimental: Antioxidant activity of the newly synthesized 13a–i, 14a–i, 11a–c and 12a–c were assessed in terms of hydrogen-donating or radical-scavenging ability via the stable free radical 1,1-diphenyl-2-picrylhydrazyl (DPPH) using ascorbic acid as a reference at a concentration of […].
The free radical scavenging activity (RSA) was assessed spectrophotometically at 517 nm via decoloration of the solution of the DPPH (1,1-diphenyl-2-picrylhydrazyl) radical according to Brand-Williams et al. 1995 [32]. DPPH solution was prepared by dissolving of 20 mg of DPPH in one liter of dimethylsulphoxide (DMSO). A freshly prepared DPPH solution was used for the assay. Each of the tested compounds 11a–c, 12a–c, 13a–i, 14a–i and 15a,b were dissolved in DMSO (1mg/mL). A volume of […] of a DMSO stock solution of the test compounds was added to 2 mL of freshly prepared DPPH in DMSO solution. The mixtures were shaken in a vortex (2500 rpm) for 1 min and then left to stand for 15, 30, 45 and 60 min in the dark room. The absorbance was measured at 517 nm against blank using UV visible spectrophotometer 2401 PC (Shimadzu, Kyoto, Japan). Lower absorbance of the reaction mixture indicated higher free radical scavenging activity was analyzed from the graph plots of the inhibition percentage against the compound concentration. The experiment was carried out in triplicate and averaged. The scavenging activity was calculated according to the following formula:Scavenging ability (%) = (A517 of control - A517of sample / A 517 of control) ×100(1)

C. albicans (ATCC 10231) = test: Disk diffusion antimicrobial test, C. albicans; type: cell-based, Candida albicans; conditions: Candida albicans, ATCC10231, disk diffusion; yeast; 20 mg per disc (title), concentration 20 µg (footnote)
Experimental: (§1) The newly synthesized compounds were chosen to be evaluated in vitro towards a variety of pathogenic microorganisms; Gram-positive bacteria: S. aureus (ATCC 6538) and B. subtilis (ATCC 6633); Gram-negative bacteria: P. areuginosa (ATCC 27853) and E. coli (DSMZ 1058); yeast: C. albicans (ATCC 10231) and S. cerevisiae (ATCC 9080) and fungi: A. niger (NRRL A-326) using the disk diffusion method at a single dose of 20 µl. The results are shown in Table 1 as the growth inhibition zone (mm).
(§2) The antimicrobial activity of target compounds were evaluated to be in vitro against a variety of pathogenic microorganisms, namely Staphylococcus aureus (ATCC 6538), Bacillus subtilis (ATCC 6633) (Gram-positive bacteria), Pseudomonas areuginosa (ATCC 27853), Escherichia coli (DSMZ 1058) (Gram-negative bacteria), Candida albicans (ATCC 10231), Saccharomyces cerevisiae (ATCC 9080) (Yeast) and Aspergillus niger (NRRL A-326) (Fungi) using the disk diffusion method at a single dose of 20 µg. The microorganisms were served and obtained from the Microbial Biotechnology Department, National Research Center, Giza, Egypt. Amphotericin, amoxicillin and ciprofloxacin were used as reference drugs (Oxoid™ Disks). The tested compounds 11a–c, 12a–c, 13a–i, 14a–i and 15a,b were dissolved in dimethylsulphoxide (DMSO) at a concentration of 1 mg/mL. Aliquots of 20 μl were soaked on filter paper discs (6 mm) and dried at room temperature under sterilized conditions. The paper discs were placed on inoculated agar plats and then incubated for 24 h at 37 °C for bacterial strains and after 48–72 h incubation at 30 °C for fungi. Both bacterial and yeast strains were grown on nutrient agar medium (g/l): beef extract, 3; peptone, 10 and agar, 20 at pH of 7.2. The fungal strain was grown on Czapek-Dox medium (g/l): sucrose, 30; NaNO3, 3; MgSO4.7H2O, 0.5l; KCl, 0.5; FeSO4, 0.01; K2HPO4, 1 and agar, 20 at pH of 6.0.

[6] = tested on: S. cerevisiae (ATCC 9080); test: Disk diffusion antimicrobial test, S. cerevisiae; type: cell-based; conditions: Saccharomyces cerevisiae, ATCC9080, yeast, 20 mg per disc (title), concentration 20 µg (footnote)
Experimental: as §1, §2

[7] = 15 min, read-out: Scavenging Activity (%) on DPPH radicals at 15 min
[8] = 30 min, read-out: Scavenging Activity (%) on DPPH radicals at 30 min
[9] = 45 min, read-out: Scavenging Activity (%) on DPPH radicals at 45 min
[10] = 60 min, read-out: Scavenging Activity (%) on DPPH radicals at 60 min

SMILES	inhibition at 100 µg/mL [1]	inhibition at 100 µg/mL [2]	inhibition at 100 µg/mL [3]	inhibition at 100 µg/mL [4]	melting point	inhibition [5, 7]	inhibition [5, 8]	inhibition [5, 9]	inhibition [5, 10]	IC50 ([1]; 48 h post-treatment)	IC50 [2]	IC50 [3]	IC50 HCT-116 ([1]; 48 h post-treatment)	zone of inhibition at 20 µg/disc (C. albicans (ATCC 10231))	zone of inhibition at 20 µg/disc [6]
O=C1Nc2ccccc2C12CC(c1cn(S(=O)(=O)c3ccccc3[N+](=O)[O-])c3ccccc13)=NN2 (stereo not drawn) [Compound 13i, 5’-(N-(2-Nitro-benzensulfonyl)-1H-indol-3-yl)-2’,4’-dihydrospiro (indoline-3,3’-pyrazol)-2-one]	97.7%	96.8%	97.8%	69.4%	210 to 212 °C	–	–	–	–	–	–	–	–	–	–
O=C(c1ccccc1Cl)n1cc(C2=NNC3(C2)C(=O)Nc2ccccc23)c2ccccc21 (stereo not drawn) [Compound 13e, 5’-(N-(2-Chloro-benzoyl)-1H-indol-3-yl)-2’,4’-dihydrospiro(indoline-3,3’-pyrazol)-2-one]	90.4%	79.8%	96.4%	10.3%	219 to 221 °C	9.1 ± 1.38%	26.1 ± 1.26%	36.7 ± 1.62%	48.1 ± 1.82%	35.4 µg/mL (≈ 80.3 µM)	67.1 µg/mL (≈ 152 µM)	31.9 µg/mL (≈ 72.4 µM)	–	–	–
COc1cccc2c1C(=O)c1c(O)c3c(c(O)c1C2=O)C[C@@](O)(C(=O)CO)C[C@@H]3O[C@H]1C[C@H](N)[C@H](O)[C@H](C)O1 [Doxorubicin, doxorubicin, reference compound]	100%	100%	96.8%	0%	–	–	–	–	–	21.6 µg/mL (≈ 39.7 µM)	21.6 µg/mL (≈ 39.7 µM)	37.6 µg/mL (≈ 69.2 µM)	26.1 µg/mL (≈ 48 µM)	–	–
O=C1Nc2ccccc2C12CC(c1cn(S(=O)(=O)c3ccc(Cl)cc3)c3ccccc13)=NN2 (stereo not drawn) [Compound 13h, 5’-(N-(4-Chloro-benzensulfonyl)-1H-indol-3-yl)-2’,4’-dihydrospiro(indoline-3,3’-pyrazol)-2-one]	91.3%	79.5%	93.4%	14.1%	197 to 199 °C	15.2 ± 1.98%	16.3 ± 1.96%	20.6 ± 1.48%	35.7 ± 1.91%	20.5 µg/mL (≈ 43 µM)	19.2 µg/mL (≈ 40.3 µM)	5.8 µg/mL (≈ 12.2 µM)	–	–	–
CCn1cc(C2=NNC3(C2)C(=O)Nc2ccccc23)c2ccccc21 (stereo not drawn) [Compound 13b, 5’-(N-Ethyl-1H-indol-3-yl)-2’,4’-dihydrospiro(indoline-3,3’-pyrazol)-2-one]	94.5%	81.4%	95.4%	10.4%	143 to 145 °C	43.5 ± 1.98%	47 ± 1.81%	56.3 ± 1.29%	65.5 ± 1.55%	21.3 µg/mL (≈ 64.5 µM)	48 µg/mL (≈ 145 µM)	24 µg/mL (≈ 72.6 µM)	–	18 mm	18 mm
